The values below are quoted from earlier work in patent publication US8177778B2, “System and method for stabilizing corneal tissue after treatment” (Avedro, Inc., priority 2009, dated 2012).

This data set concerns corneal wound healing. To be noted: rabbits after excimer laser PRK ablation, M6P drop vs control drop.

Regarding `O=C[C@@H](O)[C@@H](O)[C@H](O)[C@H](O)COP(=O)(O)O` [M6P, Mannose 6-phosphate], the subepithelial collagen result is listed as “less subepithelial collagen”. The corneal haze result (at 4 weeks) was “significant reduction in corneal haze”.
